# Where “and” joins values, the source holds several entries; their conditions need not be identical. Equal entries are not always repeated.
# Legend:
# Rattus norvegicus [1] = assay: LC0; higher = less toxic; conditions: acute; inhalation; Sprague-Dawley
# Cricetulus sp. = conditions: duration: 1 days, injection, Other
# Oryctolagus sp. [2] = system: Oryctolagus sp.
# Rattus norvegicus [3] = conditions: for LD50: acute
# Sus scrofa [4] = conditions: chronic; duration: 123 days; dermal; Not specified
# Mus musculus [5] = conditions: for LD50: acute
# Canidae [6] = conditions: chronic; duration: 23 weeks; oral; gavage; Beagle
# Monkey = conditions: chronic, duration: 18 months
# Rattus norvegicus [7] = conditions: uterotrophic, Active
# Ovis sp. = conditions: uterotrophic; duration: 14 days; injection; Active
# Mus musculus [8] = conditions: uterotrophic, Active
# Homo sapiens [9] = conditions: clinical; duration: 16 days; oral; M/F; plasma cholinesterase inhibition
# Rattus norvegicus [10] = conditions: developmental; oral; drinking water; Fetus: Decreased birth weight
# Mus musculus [11] = conditions: developmental; duration: 10 days; inhalation; intermittent; Fetus: Decreased birth weight
# Rattus norvegicus [12] = assay: LD5; higher = less toxic; conditions: developmental; oral; drinking water; M/F; reduced pup body weight
# Rattus norvegicus [13] = conditions: repeat dose other; oral
# Rattus norvegicus [14] = conditions: developmental; oral; drinking water; M/F; reduced pup body weight
# Mus musculus [15] = conditions: developmental; inhalation; M/F; developmental toxicity (skeletal variations)
# Homo sapiens [16] = conditions: clinical; duration: 6 hours; inhalation; M/F; neurological
# Canidae [17] = conditions: subchronic; duration: 13 weeks; oral; diet; F; Beagle
# Sus scrofa [18] = conditions: reproduction developmental; duration: 15 days; oral; diet; F; Not specified; Increased inter-estrus interval, concentrations of progesterone and prolonged maintenance of corpora lutea
# Rattus norvegicus [19] = conditions: subchronic; duration: 13 weeks; oral; diet; M/F; Fischer 344; Body Weight Changes: decrease + Histopathology: Seminal vesicle-Atrophy Bone-Osteopetrosis Pituitary-Hyperplasia Mammary gland-Ductular …
# Oryctolagus sp. [20] = conditions: uterotrophic; duration: 12 days; oral; Active
# [21] = subchronic, duration: 30 days, dermal, New Zealand
# [22] = chronic, duration: 18 months, oral, gavage, Sprague-Dawley
# [23] = subchronic, duration: 13 weeks, inhalation, Sprague-Dawley
# [24] = duration: 1 days, injection, subcutaneous
structure (smiles),measurement,setting,value
CS(C)=O [Dimethyl sulfoxide],LC0,Rattus norvegicus [1],> 2.9 mg/L
same,NOAEL,"Cricetulus sp.; developmental, Intraperitoneal",< 5500 mg/kg-day
same,NOAEL,"Cricetulus sp.; developmental, intravenous, intraperitoneal",2500 mg/kg-day
same,NOAEL,"Cricetulus sp.; reproduction developmental, Intraperitoneal, F",< 5500 mg/kg-day
same,NOAEL,"Cricetulus sp.; reproduction developmental, intravenous, intraperitoneal, F",2500 mg/kg-day
same,LOAEL,"Oryctolagus sp. [2]; chronic, duration: 6 months, dermal, New Zealand",1650 mg/kg-day
same,LOAEL,"Oryctolagus sp. [2]; chronic, duration: 22 weeks, dermal, New Zealand",1650 mg/kg-day
same,NOAEL,"Oryctolagus sp. [2]; developmental, duration: 9 days, injection, subcutaneous",4000 mg/kg-day
same,NOAEL,"Oryctolagus sp. [2]; developmental, duration: 9 days, oral, gavage",5000 mg/kg-day
same,NOAEL,"Oryctolagus sp. [2]; developmental, injection, subcutaneous",4000 mg/kg-day
same,LOAEL,Oryctolagus sp. [2]; [21],5000 mg/kg-day
same,NOAEL,Oryctolagus sp. [2]; [21],1000 mg/kg-day
same,NOAEL,"Oryctolagus sp. [2]; subchronic, duration: 90 days, dermal, New Zealand",2200 mg/kg-day
same,LD50,Rattus norvegicus [3]; dermal,40000 mg/kg
same,LD50,"Rattus norvegicus [3]; injection, intravenous",5360 mg/kg
same,LD50,"Rattus norvegicus [3]; oral, gavage",28300 mg/kg
same,LOAEL,Rattus norvegicus [3]; [22],9900 mg/kg-day
same,NOAEL,Rattus norvegicus [3]; [22],1100 mg/kg-day
same,NOAEL,"Rattus norvegicus [3]; developmental, duration: 1 days, injection, subcutaneous, Sprague-Dawley",< 10200 mg/kg-day
same,NOAEL,"Rattus norvegicus [3]; reproduction developmental, duration: 6 days, oral, gavage, Wistar, generation: F1",10000 mg/kg-day
same,NOAEL,"Rattus norvegicus [3]; reproduction developmental, duration: 10 days, injection, Intraperitoneal, F",< 2000 mg/kg-day
same,NOAEL,"Rattus norvegicus [3]; reproduction developmental, oral, gavage, Sprague-Dawley, generation: F0",5000 mg/kg-day
same,NOAEL,"Rattus norvegicus [3]; reproduction developmental, oral, gavage, Sprague-Dawley, generation: F1",5000 mg/kg-day
same,NOAEC,"Rattus norvegicus [3]; subchronic, duration: 6 weeks, inhalation, Sprague-Dawley",0.2 mg/L
same,LOAEC,Rattus norvegicus [3]; [23],2.78 mg/L
same,NOAEC,Rattus norvegicus [3]; [23],0.964 mg/L
same,NOAEL,Sus scrofa [4],825 mg/kg-day
same,LD50,Mus musculus [5]; dermal,50000 mg/kg
same,LD50,"Mus musculus [5]; injection, intravenous",3100 mg/kg and 5750 mg/kg
same,LD50,Mus musculus [5]; oral,≥ 19200 mg/kg and ≤ 22000 mg/kg
same,NOAEL,"Mus musculus [5]; developmental, duration: 7 days, oral, gavage, Swiss",12000 mg/kg-day
same,LOAEL,"Mus musculus [5]; short-term, duration: 3 weeks, oral, gavage, Swiss",2000 mg/kg-day
same,NOAEL,"Mus musculus [5]; subchronic, duration: 5 weeks, injection, Intraperitoneal, Swiss",2500 mg/kg-day
same,LOAEL,Canidae [6],2500 mg/kg-day
same,NOAEL,Monkey; dermal,8910 mg/kg-day
same,LOAEL,"Monkey; oral, gavage",8910 mg/kg-day
same,NOAEL,"Monkey; oral, gavage",2970 mg/kg-day
C[C@]12CC[C@@H]3c4ccc(O)cc4CC[C@H]3[C@@H]1C[C@@H](O)[C@@H]2O [Estriol],LEL,"Rattus norvegicus [7]; duration: 0.125 days, injection, subcutaneous",0.001 mg/day
same,LEL,"Rattus norvegicus [7]; duration: 0.25 days, injection, subcutaneous",0.001 mg/day
same,LEL,"Rattus norvegicus [7]; duration: 1 days, dermal",3 mg/L
same,LEL,"Rattus norvegicus [7]; duration: 1 days, injection, intraperitoneal",0.001 mg
same,LEL (% (w/w)),"Rattus norvegicus [7]; duration: 2 days, implant",40
same,LEL (pellets),"Rattus norvegicus [7]; duration: 2 days, implant",4
same,LEL,"Rattus norvegicus [7]; duration: 2 days, injection, subcutaneous",0.01 mg/day
same,LEL,"Rattus norvegicus [7]; duration: 3 days, oral",0.09 mg/kg-day
same,LEL (rat units),Rattus norvegicus [7]; duration: 5 days,1
same,LEL,Ovis sp.,0.001 mg/day
same,LEL,"Mus musculus [8]; duration: 0.17 days, injection, subcutaneous",2.88e-07 mg
same,LEL,Mus musculus [8]; [24],0.0761 mg/kg-day
same,LEL (gamma),"Mus musculus [8]; duration: 3 days, injection, subcutaneous",0.04
same,LEL,"Mus musculus [8]; duration: 3 days, oral",0.93 mg/kg-day
O=P(O)(O)CCCl [Ethephon],LEL,Homo sapiens [9],0.5 mg/kg-day
CCC(C)=O [Methyl ethyl ketone],NOAEL,Rattus norvegicus [10],1710 mg/kg-day
same,NOAEL,Mus musculus [11],2980 mg/m3
same,LD5,Rattus norvegicus [12],639 mg/kg-day
same,LOAEL,Rattus norvegicus [13],4570 mg/kg-day
same,NOAEL,Rattus norvegicus [13],1770 mg/kg-day
same,LOAEL,Rattus norvegicus [14],1770 mg/kg-day
same,NOAEL,Rattus norvegicus [14],594 mg/kg-day
same,LEC,Mus musculus [15],5200 mg/m3
same,LOAEL,Homo sapiens [16],292 mg/m3
c1ccc2c(c1)Nc1ccccc1S2 [Phenothiazine],NOAEL,Canidae [17],1.59 mg/kg-day
C[C@H]1CCCC(=O)CCC/C=C/c2cc(O)cc(O)c2C(=O)O1 [Zearalenone],LOEL,Sus scrofa [18],0.2 mg/kg-day
same,NOEL,Sus scrofa [18],0.04 mg/kg-day
same,NOEL,Rattus norvegicus [19],< 2.88 mg/kg-day
same,LEL,Oryctolagus sp. [20],1 mg/kg-day
same,LEL,"Rattus norvegicus [7]; duration: 3 days, oral",0.18 mg/day
same,LEL,"Rattus norvegicus [7]; duration: 3 days, oral, diet",1 mg/kg-day
same,LEL,"Rattus norvegicus [7]; duration: 8 days, oral",1 mg/kg-day
same,LEL,Mus musculus [8]; [24],5 mg/kg-day
same,LEL,"Mus musculus [8]; duration: 7 days, oral",1 mg/kg-day
same,LEL,Mus musculus [8]; oral,2 mg/kg-day
